Data taken from ChEMBL document CHEMBL1145846, “Discovery of allosteric potentiators for the metabotropic glutamate 2 receptor: synthesis and subtype selectivity of N-(4-(2-methoxyphenoxy)phenyl)-N-(2,2,2- trifluoroethylsulfonyl)pyrid-3-ylmethylamine” (J Med Chem, 2003).

Experiments:
[1] = target: T1, Metabotropic glutamate receptor 2 (Homo sapiens, UniProt Q14416); assay: Effective concentration against Metabotropic glutamate receptor 2
[2] = target: T1, Metabotropic glutamate receptor 2; assay: Ability to displace [3H]LY-341,495 at glutamate-site on Metabotropic glutamate receptor 2; No significant displacement
[3] = target: Metabotropic glutamate receptor 3 (Homo sapiens, UniProt Q14832); assay: Effective concentration against human cloned Metabotropic glutamate receptor 3
Sequence of Metabotropic glutamate receptor 3 (Q14832 whole entry): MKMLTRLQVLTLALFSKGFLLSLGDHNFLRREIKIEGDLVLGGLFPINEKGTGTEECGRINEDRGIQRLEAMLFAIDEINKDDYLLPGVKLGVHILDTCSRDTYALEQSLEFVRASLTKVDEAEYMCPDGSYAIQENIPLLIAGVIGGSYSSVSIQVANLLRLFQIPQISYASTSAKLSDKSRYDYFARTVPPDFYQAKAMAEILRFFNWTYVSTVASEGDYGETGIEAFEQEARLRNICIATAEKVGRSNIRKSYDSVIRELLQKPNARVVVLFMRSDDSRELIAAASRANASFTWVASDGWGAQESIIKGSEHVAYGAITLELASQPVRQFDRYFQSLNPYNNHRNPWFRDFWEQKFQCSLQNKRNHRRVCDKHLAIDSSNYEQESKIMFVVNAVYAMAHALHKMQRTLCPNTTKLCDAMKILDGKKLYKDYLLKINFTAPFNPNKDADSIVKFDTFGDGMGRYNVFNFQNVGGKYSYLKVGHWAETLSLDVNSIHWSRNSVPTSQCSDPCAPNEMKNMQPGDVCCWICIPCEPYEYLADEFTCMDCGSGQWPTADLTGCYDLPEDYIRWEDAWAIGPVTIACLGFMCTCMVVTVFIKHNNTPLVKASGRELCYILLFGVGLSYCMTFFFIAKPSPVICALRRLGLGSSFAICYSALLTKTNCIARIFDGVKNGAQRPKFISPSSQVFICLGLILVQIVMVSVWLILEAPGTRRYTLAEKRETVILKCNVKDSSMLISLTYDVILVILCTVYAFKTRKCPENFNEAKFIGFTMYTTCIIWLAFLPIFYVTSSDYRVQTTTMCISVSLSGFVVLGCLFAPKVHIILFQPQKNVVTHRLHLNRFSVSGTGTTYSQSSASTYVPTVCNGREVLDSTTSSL

T1 sequence (Q14416 whole entry): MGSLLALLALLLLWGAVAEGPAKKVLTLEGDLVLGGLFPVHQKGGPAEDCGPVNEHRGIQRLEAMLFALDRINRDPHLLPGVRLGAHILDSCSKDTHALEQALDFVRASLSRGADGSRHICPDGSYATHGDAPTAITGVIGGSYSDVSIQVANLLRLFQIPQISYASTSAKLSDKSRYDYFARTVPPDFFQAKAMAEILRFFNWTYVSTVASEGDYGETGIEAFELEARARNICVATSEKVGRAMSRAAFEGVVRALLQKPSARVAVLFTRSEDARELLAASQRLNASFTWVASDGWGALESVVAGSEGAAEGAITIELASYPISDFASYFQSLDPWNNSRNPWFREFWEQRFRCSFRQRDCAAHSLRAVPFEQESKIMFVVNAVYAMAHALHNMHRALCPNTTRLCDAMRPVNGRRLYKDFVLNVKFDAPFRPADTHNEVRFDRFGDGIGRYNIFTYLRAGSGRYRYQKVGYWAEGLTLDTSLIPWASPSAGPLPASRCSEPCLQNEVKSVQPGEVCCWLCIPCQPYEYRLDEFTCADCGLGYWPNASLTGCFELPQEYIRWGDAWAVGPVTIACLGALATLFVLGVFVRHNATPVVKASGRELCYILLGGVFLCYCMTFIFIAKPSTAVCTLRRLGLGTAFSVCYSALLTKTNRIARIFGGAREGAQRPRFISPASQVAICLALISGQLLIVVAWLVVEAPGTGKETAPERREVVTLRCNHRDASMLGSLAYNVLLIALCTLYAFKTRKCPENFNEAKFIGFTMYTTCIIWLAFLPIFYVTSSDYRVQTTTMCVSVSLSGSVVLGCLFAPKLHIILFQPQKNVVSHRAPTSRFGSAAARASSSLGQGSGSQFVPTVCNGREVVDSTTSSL

Row | EC50 [1] | IC50 [2] | EC50 [3] | Structure (SMILES)
1 | 270 nM | > 100000 nM |  | COc1ccccc1Oc1ccc(N(Cc2cccnc2)S(=O)(=O)CC(F)(F)F)cc1
2 | 1500 nM |  | > 12500 nM | CCS(=O)(=O)N(Cc1cccnc1)c1ccc(Oc2ccccc2)cc1
